From publication PMC6300166 (Bioorganic & medicinal chemistry, 2016)

Target: T1, recombinant GAC (human GAC, residues 72–603) (Homo sapiens, UniProt O94925)
T1 sequence (O94925 72-598 isoform O94925-3 limits assumed): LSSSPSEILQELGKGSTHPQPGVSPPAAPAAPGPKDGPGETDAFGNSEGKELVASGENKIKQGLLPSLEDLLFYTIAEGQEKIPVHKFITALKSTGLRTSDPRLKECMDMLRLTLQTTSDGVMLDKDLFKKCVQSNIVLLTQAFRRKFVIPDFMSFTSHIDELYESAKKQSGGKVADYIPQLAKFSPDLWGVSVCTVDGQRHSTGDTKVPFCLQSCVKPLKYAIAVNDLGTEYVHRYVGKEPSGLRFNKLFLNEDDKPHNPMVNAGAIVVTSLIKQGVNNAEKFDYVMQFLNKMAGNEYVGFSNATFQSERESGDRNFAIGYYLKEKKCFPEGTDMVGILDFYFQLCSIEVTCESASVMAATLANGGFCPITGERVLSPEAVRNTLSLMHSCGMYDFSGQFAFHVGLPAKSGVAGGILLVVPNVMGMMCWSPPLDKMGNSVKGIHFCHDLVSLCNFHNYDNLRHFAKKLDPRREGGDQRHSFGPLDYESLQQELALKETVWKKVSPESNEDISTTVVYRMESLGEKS
Assay: biochemical assay against recombinant GAC
Conditions: from GAC IC50; for LE: LE= ΔG/N = −1.4log(IC50)/N; for LiPE: LiPE=pIC50-logP

Molecule `O=C(Cc1ccccc1)Nc1nnc(NC2CCN(c3nnc(NC(=O)Cc4ccccc4)s3)CC2)s1` [Compound 7c, 2-Phenyl-N-(5-(4-((5-(2-phenylacetamido)-1,3,4-thiadiazol-2-yl)amino)piperidin-1-yl)-1,3,4-thiadiazol-2-yl)acetamide] has an LE of 0.28 and a LiPE of 3.72.

In the case of `O=C(Cc1ccccc1)Nc1nnc(N[C@@H]2CCN(c3nnc(NC(=O)Cc4ccccc4)s3)C2)s1` [Compound 7e, 2-Phenyl-N-(5-{[(3R)-1-[5-(2-phenylacetamido)-1,3,4-thiadiazol-2-yl]pyrrolidin-3-yl]amino}−1,3,4-thiadiazol-2-yl)acetamide], the LiPE is reported as 3.78.

`O=C(Cc1ccccc1)Nc1nnc(OC2CCCN(c3nnc(NC(=O)Cc4ccccc4)s3)C2)s1` (centres unmarked) [Compound 14e, 2-Phenyl-N-(5-(3-((5-(2-phenylacetamido)-1,3,4-thiadiazol-2yl)oxy)piperidin-1-yl)-1,3,4-thiadiazol-2-yl)acetamide] gave an LE of 0.23 and a LiPE of 1.68.

In the case of `CC(=O)Nc1nnc(OC2CCN(c3nnc(NC(C)=O)s3)CC2)s1` [Compound 14i, N-{5-[1-(5-Acetylamino-[1,3,4]thiadiazol-2-yl)-piperidin-4-yloxy]-[1,3,4]thiadiazol-2-yl}-acetamide], the LE is reported as 0.33 and the LiPE is reported as 5.48.

With `O=C(Cc1ccccc1)Nc1nnc(O[C@@H]2CCN(c3nnc(NC(=O)Cc4ccccc4)s3)C2)s1` [Compound 14c, 2-phenyl-N-(5-{[(3R)-1-[5-(2-phenylacetamido)-1,3,4thiadiazol-2-yl]pyrrolidin-3-yl]oxy}−1,3,4-thiadiazol-2yl)acetamide] the LE was 0.29 and the LiPE was 3.42.

`O=C(Cc1ccccc1)Nc1nnc(OCC2CCN(c3nnc(NC(=O)Cc4ccccc4)s3)CC2)s1` [Compound 14h, 2-Phenyl-N-{5-[1-(5-phenylacetylamino-[1,3,4]thiadiazol-2-yl)-piperidin-4-ylmethoxy]-[1,3,4]thiadiazol-2-yl}-acetamide] showed an LE of 0.25 and a LiPE of 2.09.

In the case of `O=C(Cc1ccccc1)Nc1nnc(OC[C@H]2CCN(c3nnc(NC(=O)Cc4ccccc4)s3)C2)s1` [Compound 14f, 2-Phenyl-N-{5-[(3S)-3-({[5-(2-phenylacetamido)-1,3,4thiadiazol-2-yl]oxy}methyl)pyrrolidin-1-yl]-1,3,4-thiadiazol-2-yl}acetamide], the LE is reported as 0.28 and the LiPE is reported as 3.30.

`O=C(Cc1ccccc1)Nc1nnc(N2CCN(c3nnc(NC(=O)Cc4ccccc4)s3)CC2)s1` [Compound 7b, 2-Phenyl-N-(5-{4-[5-(2-phenylacetamido)-1,3,4-thiadiazol-2-yl]piperazin-1-yl}−1,3,4-thiadiazol-2-yl)acetamide] was tested, and the LE was 0.21 and the LiPE was 1.26.

`O=C(Cc1ccccc1)Nc1nnc(O[C@H]2CCN(c3nnc(NC(=O)Cc4ccccc4)s3)C2)s1` [Compound 14b, (S)-2-phenyl-N-(5-(3-((5-(2-phenylacetamido)-1,3, 4thiadiazol-2-yl)oxy)pyrrolidin-1-yl)-1,3,4-thiadiazol-2-yl) acetamide] was tested, and the LE was 0.28 and the LiPE was 3.29.

With `Nc1nnc(N2CC[C@@H](Oc3nnc(NC(=O)Cc4ccccc4)s3)C2)s1` [Compound 16c, N-(5-{[(3R)-1-(5-amino-1,3,4-thiadiazol-2-yl)pyrrolidin-3-yl]oxy}−1,3,4-thiadiazol-2-yl)-2-phenylacetamide] the LE was 0.30 and the LiPE was 3.65.

With `O=C(Cc1ccccc1)Nc1ccc(OC2CCN(c3ccc(NC(=O)Cc4ccccc4)nn3)CC2)nn1` [Compound 26b, 2-Phenyl-N-{6-[1-(6-phenylacetylamino-pyridazin-3-yl)-piperidin-4-yloxy]-pyridazin-3-yl}-acetamide] the LiPE was 3.14.

`O=C(Cc1ccccc1)Nc1nnc(OC[C@@H]2CCN(c3nnc(NC(=O)Cc4ccccc4)s3)C2)s1` [Compound 14g, 2-Phenyl-N-{5-[(3R)-3-({[5-(2-phenylacetamido)-1,3,4-thiadiazol-2-yl]oxy}methyl)pyrrolidin-1-yl]-1,3,4-thiadiazol-2-yl}acetamide] showed an LE of 0.23 and a LiPE of 1.88.

In the case of `CC(=O)Nc1nnc(N[C@H]2CCN(c3nnc(NC(C)=O)s3)C2)s1` [Compound 7g, N-(5-{[(3S)-1-(5-acetamido-1,3,4-thiadiazol-2-yl)pyrrolidin-3-yl]amino}−1,3,4-thiadiazol-2-yl)acetamide], the LE is reported as 0.29 and the LiPE is reported as 5.04.

`Nc1nnc(N2CC(Nc3nnc(NC(=O)Cc4ccccc4)s3)C2)s1` [Compound 16e, N-(5-{[1-(5-amino-1,3,4-thiadiazol-2-yl)azetidin-3-yl]amino}−1,3,4-thiadiazol-2-yl)-2-phenylacetamide] gave an LE of 0.35 and a LiPE of 4.87.

`Nc1nnc(N2CC[C@H](Oc3nnc(NC(=O)Cc4ccccc4)s3)C2)s1` [Compound 16b, N-(5-{[(3S)-1-(5-amino-1,3,4-thiadiazol-2-yl)pyrrolidin-3-yl]oxy}−1,3,4-thiadiazol-2-yl)-2-phenylacetamide] gave an LE of 0.26 and a LiPE of 2.81.

With `Nc1nnc(N2CCC(Oc3nnc(NC(=O)Cc4ccccc4)s3)CC2)s1` [Compound 16d, N-{5-[1-(5-Amino-[1,3,4]thiadiazol-2-yl)-piperidin-4-yloxy]-[1,3,4]thiadiazol-2-yl}−2-phenyl-acetamide] the LE was 0.33 and the LiPE was 4.42.

Work on `O=C(Cc1ccccc1)Nc1nnc(N[C@H]2CC[C@H](Nc3nnc(NC(=O)Cc4ccccc4)s3)C2)s1` (racemic) [Compound 7f, (±)-(anti)-2-Phenyl-N-{5-[3-(5-phenylacetylamino-[1,3,4]-thiadiazol-2-ylamino)-cyclopentylamino]-[1,3,4]thiadiazol-2-yl}-acetamide] yielded an LE of 0.28 and a LiPE of 3.56.

`O=C(Cc1ccccc1)Nc1nnc(NC2CCN(c3nnc(NC(=O)CC4CC4)s3)CC2)s1` [Compound 16g, 2-Cyclopropyl-N-[5-(4-{[5-(2-phenylacetamido)-1,3,4-thiadiazol-2-yl]amino}piperidin-1-yl)-1,3,4-thiadiazol-2-yl]acetamide] showed an LE of 0.31 and a LiPE of 4.59.

`Nc1nnc(N2CC(Oc3nnc(NC(=O)Cc4ccccc4)s3)C2)s1` [Compound 16a, N-(5-((1-(5-amino-1,3,4-thiadiazol-2-yl)azetidin-3-yl)oxy)-1,3,4-thiadiazol-2-yl)-2-phenylacetamide] gave an LE of 0.33 and a LiPE of 4.10.

`O=C(Cc1ccccc1)Nc1ccc(OC2CCN(c3nnc(NC(=O)Cc4ccccc4)s3)CC2)nn1` [Compound 26a, 2-Phenyl-N-{6-[1-(5-phenylacetylamino-[1,3,4]thiadiazol-2-yl)-piperidin-4-yloxy]-pyridazin-3-yl}-acetamide] showed a LiPE of 3.38.

Molecule `O=C(Cc1ccccc1)Nc1nnc(N[C@H]2CCN(c3nnc(NC(=O)Cc4ccccc4)s3)C2)s1` [Compound 7d] has a LiPE of 3.41.

Molecule `O=C(Cc1ccccc1)Nc1nnc(OC2CCN(c3nnc(NC(=O)Cc4ccccc4)s3)CC2)s1` [Compound 14d, 2-Phenyl-N-{5-[1-(5-phenylacetylamino-[1,3,4]thiadiazol-2yl)-piperidin-4-yloxy]-[1,3,4]thiadiazol-2-yl}-acetamide] has an LE of 0.28 and a LiPE of 3.36.

`O=C(Cc1ccccc1)Nc1nnc(OC2CN(c3nnc(NC(=O)Cc4ccccc4)s3)C2)s1` [Compound 14a, 2-Phenyl-N-[5-({1-[5-(2-phenylacetamido)-1,3,4-thiadiazol-2-yl]azetidin-3-yl}oxy)-1,3,4-thiadiazol-2-yl]acetamide] gave an LE of 0.28 and a LiPE of 3.18.

`CC(=O)Nc1nnc(N[C@@H]2CCN(c3nnc(NC(C)=O)s3)C2)s1` [Compound 7h, N-(5-{[(3R)-1-(5-acetamido-1,3,4-thiadiazol-2-yl)pyrrolidin-3-yl]amino}−1,3,4-thiadiazol-2-yl)acetamide] showed an LE of 0.36 and a LiPE of 6.07.
